Structures are written as SMILES. Read-outs that look alike come from different tables or passages of the source.

The values that follow come from patent publication US11566007B2, “Ras inhibitors” (Revolution Medicines, Inc., priority 2019, dated 2023).

Experiment [1] deals with NCI-H358 cells (K-Ras G12C). The experiment in a line: Potency assay: pERK in NCI-H358 cells. To be noted: Homo sapiens, NCI-H358; H358 KRAS G12C; read-out: pERK EC50. The experiment is classed as cell-based, human. The method in brief:
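pERK decrease read by AlphaLISA SureFire p-ERK1/2 or In-Cell Western after 4 h compound exposure at 37 °C, 5% CO2.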

A further experiment relates to NCI-H358 (K-Ras G12C). The experiment is described as follows: CellTiter-Glo cell viability assay, NCI-H358. The class given is cell-based, human. To be noted: Homo sapiens, NCI-H358, 120 h, NCI-H358, 5-day treatment; class symbols; read-out: Additional H358 Cell Viability assay data (K-Ras G12C, IC50). The method in brief: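 Compounds dispensed directly onto seeded K-Ras mutant cells; plates read on day 5 after ~30 min equilibration to room temperature, by CellTiter-Glo luminescence. Signal normalized as (sample/mean DMSO)×100, then fitted to a four-parameter logistic curve.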

For another experiment, the target named is K-Ras G12C (Homo sapiens (Human), UniProt P01116+P62937, G12C). The experiment in a line: Ras-Raf (BRAF RBD) disruption / FRET / MOA assay, KRAS G12C. The experiment is classed as biochemical. To be noted: KRAS G12C, Ras-Raf disruption/FRET/MOA assay. The method in brief:
(§1)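 Compounds, top final concentration 30 μM in 10-point 3-fold series, incubated 3 hours at 25° C with nucleotide-loaded Ras, cyclophilin A and BRAF RBD.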

In another experiment the target is K-Ras G13C (Homo sapiens (Human), UniProt P01116+P62937, G13C). The experiment is described as follows: Ras-Raf (BRAF RBD) disruption / FRET / MOA assay, KRAS G13C. The class given is biochemical. To be noted: KRAS G13C, Ras-Raf disruption/FRET/MOA assay. The method in brief:
as §1

For a further experiment, the target named is KRAS G12S (Homo sapiens (Human), UniProt P01116+P62937, G12S). The experiment in a line: Ras-Raf (BRAF RBD) disruption / FRET / MOA assay, KRAS G12S. The experiment is classed as biochemical. To be noted: class symbols. The method in brief:
as §1

Another experiment deals with KRAS G12D (Homo sapiens (Human), UniProt P01116+P62937, G12D). The experiment is described as follows: Ras-Raf (BRAF RBD) disruption / FRET / MOA assay, KRAS G12D. The experiment is classed as biochemical. The following applies: class symbols. The method in brief: as §1
The next experiment concerns the target KRAS G12V (Homo sapiens (Human), UniProt P01116+P62937, G12V). The experiment is described as follows: Ras-Raf (BRAF RBD) disruption / FRET / MOA assay, KRAS G12V. The class given is biochemical. The method in brief: as §1
The target in another experiment is KRAS WT (Homo sapiens (Human), UniProt P01116+P62937). The experiment in a line: Ras-Raf (BRAF RBD) disruption / FRET / MOA assay, KRAS WT. The class given is biochemical. The method in brief:
as §1

Another experiment deals with KRAS G13D (Homo sapiens (Human), UniProt P01116+P62937, G13D). The experiment is described as follows: Ras-Raf (BRAF RBD) disruption / FRET / MOA assay, KRAS G13D. The experiment is classed as biochemical. The method in brief:
as §1

Another experiment deals with NRAS G12C (Homo sapiens (Human), UniProt P01111+P62937, G12C). The experiment in a line: Ras-Raf (BRAF RBD) disruption / FRET / MOA assay, NRAS G12C. The class given is biochemical. The method in brief:
as §1

Where [2] appears, read: read-out: IC50* KRAS G12C FRET data.
Where [3] appears, read: read-out: IC50* KRAS G13C FRET data.
Setting [4] is: Ras-Raf disruption/FRET/MOA assay, read-out: KRAS G12S FRET data IC50.
The mark [5] stands for this setting: Ras-Raf disruption/FRET/MOA assay, read-out: KRAS G12D FRET data IC50.
The mark [6] stands for this setting: read-out: IC50* KRAS G12V FRET data.
Where [7] appears, read: read-out: IC50* KRAS WT FRET data.
[8] abbreviates: read-out: IC50* KRAS G13D FRET data.
[9] abbreviates: read-out: IC50* NRAS G12C FRET data.

Sequence of KRAS G12V (P01116-2 other isoform, or with tags, fused parts or gaps G12V): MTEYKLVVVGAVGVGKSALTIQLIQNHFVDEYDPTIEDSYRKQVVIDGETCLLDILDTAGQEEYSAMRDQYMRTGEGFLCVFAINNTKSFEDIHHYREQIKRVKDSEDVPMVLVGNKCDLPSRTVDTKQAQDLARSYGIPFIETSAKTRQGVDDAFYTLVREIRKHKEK
Sequence of KRAS G12V (P62937 whole entry): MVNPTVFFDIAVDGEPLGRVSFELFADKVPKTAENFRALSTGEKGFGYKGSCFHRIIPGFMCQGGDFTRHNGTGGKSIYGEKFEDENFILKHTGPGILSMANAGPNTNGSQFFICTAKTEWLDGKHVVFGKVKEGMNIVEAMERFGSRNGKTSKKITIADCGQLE
Sequence of NRAS G12C (P01111 whole entry G12C): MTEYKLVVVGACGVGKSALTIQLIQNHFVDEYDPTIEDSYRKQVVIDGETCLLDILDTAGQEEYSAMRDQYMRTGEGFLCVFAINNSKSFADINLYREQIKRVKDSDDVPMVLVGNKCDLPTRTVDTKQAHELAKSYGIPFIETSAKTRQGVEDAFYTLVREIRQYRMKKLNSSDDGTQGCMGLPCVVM
Sequence of NRAS G12C (P62937 whole entry): as the sequence (P62937 whole entry) above
Sequence of KRAS G12D (P01116-2 other isoform, or with tags, fused parts or gaps G12D): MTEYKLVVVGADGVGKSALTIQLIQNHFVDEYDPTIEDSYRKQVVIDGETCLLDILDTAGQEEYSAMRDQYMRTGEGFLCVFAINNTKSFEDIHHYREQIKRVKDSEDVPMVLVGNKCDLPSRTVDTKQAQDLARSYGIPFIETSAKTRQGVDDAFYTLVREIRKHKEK
Sequence of KRAS G12D (P62937 whole entry): as the sequence (P62937 whole entry) above
Sequence of KRAS WT (P01116-2 other isoform, or with tags, fused parts or gaps): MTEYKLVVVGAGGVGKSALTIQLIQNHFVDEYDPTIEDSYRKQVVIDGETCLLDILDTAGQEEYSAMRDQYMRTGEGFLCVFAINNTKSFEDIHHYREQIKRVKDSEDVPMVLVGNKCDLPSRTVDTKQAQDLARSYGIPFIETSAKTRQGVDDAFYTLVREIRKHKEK
Sequence of KRAS WT (P62937 whole entry): as the sequence (P62937 whole entry) above
Sequence of KRAS G13D (P01116-2 other isoform, or with tags, fused parts or gaps G13D): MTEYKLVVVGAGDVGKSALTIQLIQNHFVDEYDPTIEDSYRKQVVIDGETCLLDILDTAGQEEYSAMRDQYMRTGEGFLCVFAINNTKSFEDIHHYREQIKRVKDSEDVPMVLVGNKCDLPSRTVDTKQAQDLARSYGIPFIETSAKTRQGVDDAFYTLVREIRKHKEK
Sequence of KRAS G13D (P62937 whole entry): as the sequence (P62937 whole entry) above
Sequence of K-Ras G12C (P01116-2 other isoform, or with tags, fused parts or gaps G12C): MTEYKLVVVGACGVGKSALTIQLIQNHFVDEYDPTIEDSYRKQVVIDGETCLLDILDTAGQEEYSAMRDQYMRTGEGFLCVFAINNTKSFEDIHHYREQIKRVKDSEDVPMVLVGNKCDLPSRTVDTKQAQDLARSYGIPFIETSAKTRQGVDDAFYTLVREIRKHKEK
Sequence of K-Ras G12C (P62937 whole entry): as the sequence (P62937 whole entry) above
Sequence of K-Ras G13C (P01116-2 other isoform, or with tags, fused parts or gaps G13C): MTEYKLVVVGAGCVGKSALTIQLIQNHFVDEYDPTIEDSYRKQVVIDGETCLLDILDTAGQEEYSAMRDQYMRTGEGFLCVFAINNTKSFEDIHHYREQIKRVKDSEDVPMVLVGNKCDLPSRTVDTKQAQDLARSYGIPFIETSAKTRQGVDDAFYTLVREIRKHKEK
Sequence of K-Ras G13C (P62937 whole entry): as the sequence (P62937 whole entry) above
Sequence of KRAS G12S (P01116-2 other isoform, or with tags, fused parts or gaps G12S): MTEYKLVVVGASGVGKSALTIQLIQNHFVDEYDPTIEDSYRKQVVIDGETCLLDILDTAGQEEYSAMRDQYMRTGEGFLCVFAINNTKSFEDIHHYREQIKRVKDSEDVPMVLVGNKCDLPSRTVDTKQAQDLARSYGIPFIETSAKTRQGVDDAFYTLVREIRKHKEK
Sequence of KRAS G12S (P62937 whole entry): as the sequence (P62937 whole entry) above

In the case of `C=CC(=O)N1CCC2(CC1)CCN([C@H](C(=O)N[C@H]1Cc3cc(O)cc(c3)-c3ccc4c(c3)c(c(-c3cccnc3[C@H](C)OC)n4CC)CC(C)(C)COC(=O)[C@@H]3CCCN(N3)C1=O)C(C)C)C2=O` (atropisomer, axis not shown) [Example A296], the EC50 in [1] was less than 5000 nM. Also, the IC50 was less than 10 nM in the experiment with NCI-H358 (K-Ras G12C); 10 to 100 nM on K-Ras G12C (setting [2]); 10 to 100 nM on K-Ras G13C (setting [3]); 100 to 1000 nM at KRAS G12S (setting [4]); 1000 to 10000 nM on KRAS G12D (setting [5]); 100 to 1000 nM on KRAS G12V (setting [6]). Also, the IC50 at KRAS WT (setting [7]), at KRAS G13D (setting [8]) and at NRAS G12C (setting [9]) was 10 to 100 nM each time.
As to `CCn1c(-c2cccnc2[C@H](C)OC)c2c3cc(ccc31)-c1cc(O)cc(c1)C[C@H](NC(=O)[C@H](C(C)C)N(C)C(=O)[C@H]1CCN(S(=O)(=O)C=C(C)C)C1)C(=O)N1CCC[C@H](N1)C(=O)OCC(C)(C)C2` (atropisomer, axis not shown) [Example A305], in experiment [1], the EC50 was less than 5000 nM. The IC50 with NCI-H358 (K-Ras G12C) is 10 to 100 nM; against K-Ras G12C (IC50* KRAS G12C FRET data) it was 10 to 100 nM; against K-Ras G13C (IC50* KRAS G13C FRET data) it was 10 to 100 nM; on KRAS G12S (KRAS G12S FRET data IC50, Ras-Raf disruption/FRET/MOA assay) it was 100 to 1000 nM; against KRAS G12D (KRAS G12D FRET data IC50, Ras-Raf disruption/FRET/MOA assay) it was 1000 to 10000 nM; at KRAS G12V (IC50* KRAS G12V FRET data), 10 to 100 nM. Besides, the IC50 at KRAS WT (IC50* KRAS WT FRET data) fell in the range of 100 to 1000 nM; against KRAS G13D (IC50* KRAS G13D FRET data) it was 100 to 1000 nM; at NRAS G12C (IC50* NRAS G12C FRET data) it was 10 to 100 nM.
For the molecule `C/C=C(\C)S(=O)(=O)N1CC[C@H](C(=O)N(C)[C@H](C(=O)N[C@H]2Cc3cc(O)cc(c3)-c3ccc4c(c3)c(c(-c3cccnc3[C@H](C)OC)n4CC)CC(C)(C)COC(=O)[C@@H]3CCCN(N3)C2=O)C(C)C)C1` (atropisomer, axis not shown) [Example A306], in [1], the EC50 was less than 5000 nM. Also, the IC50 in the experiment with NCI-H358 (K-Ras G12C) was in the range of 10 to 100 nM; on K-Ras G12C (setting [2]), 100 to 1000 nM; on K-Ras G13C (setting [3]), 10 to 100 nM; at KRAS G12S (setting [4]), 100 to 1000 nM; at KRAS G12D (setting [5]), 1000 to 10000 nM; on KRAS G12V (setting [6]) it was 100 to 1000 nM. The IC50 at KRAS WT (setting [7]), on KRAS G13D (setting [8]) and on NRAS G12C (setting [9]) was 100 to 1000 nM each time.
Take `CCn1c(-c2cccnc2[C@H](C)OC)c2c3cc(ccc31)-c1cccc(c1)C[C@H](NC(=O)[C@H](C(C)C)N(C)C(=O)[C@H]1CCN(S(=O)(=O)C=C(C)C)C1)C(=O)N1CCC[C@H](N1)C(=O)OCC(C)(C)C2` (atropisomer, axis not shown) [Example A307]: the EC50 in [1] is less than 5000 nM. Also, the IC50 in the experiment on NCI-H358 (K-Ras G12C) is greater than 1000 nM; at K-Ras G12C (setting [2]), 1000 to 10000 nM; on K-Ras G13C (setting [3]) it was 1000 to 10000 nM; on KRAS G12S (setting [4]) it was greater than 10000 nM; on KRAS G12D (setting [5]), greater than 10000 nM; at KRAS G12V (setting [6]), 1000 to 10000 nM. Besides, the IC50 at KRAS WT (setting [7]) was greater than 10000 nM; at KRAS G13D (setting [8]) it was greater than 10000 nM; at NRAS G12C (setting [9]) it was 1000 to 10000 nM.
For `CC#CC(=O)N1CC[C@H](C(=O)N(C)[C@H](C(=O)N[C@H]2Cc3nc(cs3)-c3ccc4c(c3)c(c(-c3cccnc3[C@H](C)OC)n4CC)CC(C)(C)COC(=O)[C@@H]3CCCN(N3)C2=O)C2CCCC2)C1` (atropisomer, axis not shown) [Example A309], in experiment [1], the EC50 was less than 5000 nM. Moreover, the 50% inhibitory concentration (IC50) was less than 10 nM with NCI-H358 (K-Ras G12C); 1000 to 10000 nM on K-Ras G12C (setting [2]); 1000 to 10000 nM at K-Ras G13C (setting [3]); 1000 to 10000 nM at KRAS G12S (setting [4]); greater than 10000 nM at KRAS G12D (setting [5]); 1000 to 10000 nM on KRAS G12V (setting [6]). Moreover, the results for the IC50 at KRAS WT (setting [7]), at KRAS G13D (setting [8]) and at NRAS G12C (setting [9]) were 1000 to 10000 nM, greater than 10000 nM and 1000 to 10000 nM, respectively.
With `CC#CC(=O)N1CC[C@H](C(=O)N(C)[C@H](C(=O)N[C@H]2Cc3cccc(c3)-c3ccc4c(c3)c(c(-c3cccnc3[C@H](C)OC)n4CC)CC(C)(C)COC(=O)[C@@H]3CCCN(N3)C2=O)C2CCCC2)C1` (atropisomer, axis not shown) [Example A310], the EC50 in experiment [1] was less than 5000 nM. Further, the IC50 in the experiment on NCI-H358 (K-Ras G12C) was 10 to 100 nM; on K-Ras G12C (setting [2]), 100 to 1000 nM; on K-Ras G13C (setting [3]) it was 1000 to 10000 nM; at KRAS G12S (setting [4]) it was 1000 to 10000 nM; at KRAS G12D (setting [5]), greater than 10000 nM; at KRAS G12V (setting [6]), 1000 to 10000 nM. The IC50 on KRAS WT (setting [7]) is 1000 to 10000 nM; at KRAS G13D (setting [8]), greater than 10000 nM; at NRAS G12C (setting [9]), 100 to 1000 nM.
